Laboratory results published in ChEMBL document CHEMBL2074126, “A functional assay for quantitation of the apparent affinities of ligands of P-glycoprotein in Caco-2 cells” (Pharm Res, 2001).

Tests used:
[1] = target: T1, ATP-dependent translocase ABCB1 (Homo sapiens, UniProt P08183); assay: TP_TRANSPORTER: inhibition of Taxol transepithelial transport (basal to apical) in Caco-2 cells; assay type: functional, cell-based
[2] = target: T1, ATP-dependent translocase ABCB1; assay: TP_TRANSPORTER: inhibition of Taxol transepithelial transport (basal to apical) (Taxol: 0.8 uM, Probenecid: 1000 u) in Caco-2 cells; assay type: functional, cell-based

T1 sequence (P08183 whole entry): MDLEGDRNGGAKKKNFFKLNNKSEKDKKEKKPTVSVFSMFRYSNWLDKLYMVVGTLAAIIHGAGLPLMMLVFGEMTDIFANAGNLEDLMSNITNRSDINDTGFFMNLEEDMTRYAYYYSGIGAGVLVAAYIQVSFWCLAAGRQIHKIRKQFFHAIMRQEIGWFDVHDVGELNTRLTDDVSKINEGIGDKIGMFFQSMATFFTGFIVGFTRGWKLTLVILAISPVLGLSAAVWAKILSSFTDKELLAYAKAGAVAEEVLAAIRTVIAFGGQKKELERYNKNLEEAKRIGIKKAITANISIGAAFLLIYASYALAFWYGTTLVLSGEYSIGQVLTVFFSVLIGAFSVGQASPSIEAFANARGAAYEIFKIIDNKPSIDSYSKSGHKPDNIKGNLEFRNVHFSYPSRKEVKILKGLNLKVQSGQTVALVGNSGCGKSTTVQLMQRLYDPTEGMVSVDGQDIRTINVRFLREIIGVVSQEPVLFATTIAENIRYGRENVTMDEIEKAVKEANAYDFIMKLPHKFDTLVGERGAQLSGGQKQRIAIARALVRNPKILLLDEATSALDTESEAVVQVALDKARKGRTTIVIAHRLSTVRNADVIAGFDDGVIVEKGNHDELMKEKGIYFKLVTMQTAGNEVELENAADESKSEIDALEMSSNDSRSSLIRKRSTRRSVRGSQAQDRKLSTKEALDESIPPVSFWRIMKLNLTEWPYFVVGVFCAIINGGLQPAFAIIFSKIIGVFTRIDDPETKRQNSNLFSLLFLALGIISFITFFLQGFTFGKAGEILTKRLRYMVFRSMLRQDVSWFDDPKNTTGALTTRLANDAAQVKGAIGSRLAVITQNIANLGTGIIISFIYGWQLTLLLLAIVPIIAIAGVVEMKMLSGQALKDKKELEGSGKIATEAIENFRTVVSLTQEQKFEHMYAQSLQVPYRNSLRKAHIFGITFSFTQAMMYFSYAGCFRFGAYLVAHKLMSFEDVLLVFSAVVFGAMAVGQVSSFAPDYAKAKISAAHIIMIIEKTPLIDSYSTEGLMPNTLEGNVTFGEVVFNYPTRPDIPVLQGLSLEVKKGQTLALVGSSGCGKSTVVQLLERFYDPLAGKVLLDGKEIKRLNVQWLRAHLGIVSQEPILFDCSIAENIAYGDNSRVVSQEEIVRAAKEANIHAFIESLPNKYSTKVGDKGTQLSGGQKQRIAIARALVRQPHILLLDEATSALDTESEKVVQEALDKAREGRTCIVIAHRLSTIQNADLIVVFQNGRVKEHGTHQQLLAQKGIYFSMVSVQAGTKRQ

Row | SMILES | Ki [1] [µM] | Activity [2]
1 | COc1cccc2c1C(=O)c1c(O)c3c(c(O)c1C2=O)C[C@@](O)(C(C)=O)C[C@@H]3O[C@H]1C[C@H](N)[C@H](O)[C@H](C)O1 [DAUNORUBICIN] | 2.5 | 
2 | CCN(CC)C(=O)Nc1ccc(OCC(O)CNC(C)(C)C)c(C(C)=O)c1 (centres undefined) [CELIPROLOL] | 313 | 
3 | CCCN(CCC)S(=O)(=O)c1ccc(C(=O)O)cc1 [PROBENECID] |  | is not an inhibitor [-]
4 | COc1cccc2c1C(=O)c1c(O)c3c(c(O)c1C2=O)C[C@@](O)(C(=O)CO)C[C@@H]3O[C@H]1C[C@H](N)[C@H](O)[C@H](C)O1 [DOXORUBICIN] | 8.5 | 
